# Reference: patent US8183239B2, “Substituted piperazines and piperidines as modulators of the neuropeptide Y2 receptor” (Janssen Pharmaceutica NV, priority 2005, dated 2012)
# Biological target: T1, Y2 receptors (Homo sapiens, UniProt P49146)
# T1 construct: endogenous in cells; host or cells: KAN-Ts cells (membranes)
# T1 sequence (P49146 1-381): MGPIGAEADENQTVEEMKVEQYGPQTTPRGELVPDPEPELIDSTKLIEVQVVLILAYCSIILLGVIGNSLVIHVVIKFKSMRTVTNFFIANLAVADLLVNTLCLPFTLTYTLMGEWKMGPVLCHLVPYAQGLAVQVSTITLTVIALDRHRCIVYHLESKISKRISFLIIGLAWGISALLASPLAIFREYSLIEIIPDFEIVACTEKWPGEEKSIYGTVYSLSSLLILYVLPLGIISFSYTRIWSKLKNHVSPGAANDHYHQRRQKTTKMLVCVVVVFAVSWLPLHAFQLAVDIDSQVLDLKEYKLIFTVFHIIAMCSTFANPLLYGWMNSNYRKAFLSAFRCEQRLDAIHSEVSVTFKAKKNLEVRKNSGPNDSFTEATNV
# Experiment: Radioligand binding assay ([125I]PYY, KAN-Ts cell membranes)
# Conditions: Table 1, [125I]PYY 80 pM, average of results, read-out: IC50
# Summary of the method: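 Membranes from KAN-Ts cells endogenously expressing Y2 incubated 1 h at rt with 80 pM [^125I]PYY ± test compound in HEPES buffer with NaCl, Ca^2+ and Mg^2+. Bound radioactivity collected by filtration; specific binding defined with […]. IC50 from sigmoidal fit, averaged over 3-8 duplicate experiments.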
row,Compound,IC50 [µM]
1,"CCN(CC)C(=O)C(c1ccccc1)N1CCN(c2ccc(NC(=O)c3ccnn3CC)cc2F)CC1 (stereo not shown) [Example 128, 2-Ethyl-2H-pyrazole-3-carboxylic acid {4-[4-(diethylcarbamoyl-phenyl-methyl)-piperazin-1-yl]-3-fluoro-phenyl}-amide]",0.035
2,"CCC(CC)C(=O)Nc1ccc(N2CCN(C(C(=O)N(CC)CC)c3cccc(OC)c3)CC2)c(F)c1 (stereo not shown) [Example 129, N-(4-{4-[Diethylcarbamoyl-(3-methoxy-phenyl)-methyl]-piperazin-1-yl}-3-fluoro-phenyl)-2-ethyl-butyramide]",0.04
3,"CCNC(=O)C(c1ccccc1)C1CCN(c2ccc(NC(=O)C3CCCC3)cc2C#N)CC1 (stereo not shown) [Example 130, Cyclopentanecarboxylic acid {3-cyano-4-[4-(ethylcarbamoyl-phenyl-methyl)-piperidin-1-yl]-phenyl}-amide]",0.04
4,"CCN(CC)C(=O)C(c1ccccc1)C1CCN(c2ccc(NC(=O)c3cccnc3C)cc2F)CC1 (stereo not shown) [Example 131, N-{4-[4-(Diethylcarbamoyl-phenyl-methyl)-piperidin-1-yl]-3-fluoro-phenyl}-2-methyl-nicotinamide]",0.05
5,"CCN(CC)C(=O)C(c1ccccc1)C1CCN(c2ccc(NC(=O)[C@@H]3CCOC3)cc2F)CC1 (stereo partly drawn) [Example 132, (R)-Tetrahydro-furan-3-carboxylic acid {4-[4-(diethylcarbamoyl-phenyl-methyl)-piperidin-1-yl]-3-fluoro-phenyl}-amide]",0.055
6,"CCNC(=O)C(c1ccccc1)C1CCN(c2ccc(NC(=O)[C@H]3CCOC3)cc2C#N)CC1 (stereo partly drawn) [Example 133, (S)-Tetrahydro-furan-3-carboxylic acid {3-cyano-4-[4-(ethylcarbamoyl-phenyl-methyl)-piperidin-1-yl]-phenyl}-amide]",0.06
7,"CCN(CC)C(=O)C(c1ccccc1)C1CCN(c2ccc(NC(=O)Cc3cscc3C)cc2F)CC1 (stereo not shown) [Example 134, N,N-Diethyl-2-(1-{2-fluoro-4-[2-(4-methyl-thiophen-3-yl)-acetylamino]-phenyl}-piperidin-4-yl)-2-phenyl-acetamide]",0.08
8,"CCN(CC)C(=O)C(c1ccccc1)N1CCN(c2ccc(NC(=O)C3CCC3)cc2F)CC1 (stereo not shown) [Example 135, Cyclobutanecarboxylic acid {4-[4-(diethylcarbamoyl-phenyl-methyl)-piperazin-1-yl]-3-fluoro-phenyl}-amide]",0.06
9,"CCN(CC)C(=O)C(c1ccccc1)N1CCN(c2ccc(NC(=O)C3(C)CCCCC3)cc2F)CC1 (stereo not shown) [Example 136, 1-Methyl-cyclohexanecarboxylic acid {4-[4-(diethylcarbamoyl-phenyl-methyl)-piperazin-1-yl]-3-fluoro-phenyl}-amide]",0.07
10,"CC[C@H](C)C(=O)Nc1ccc(N2CCN(C(C(=O)N(CC)CC)c3ccccc3)CC2)c(F)c1 (stereo partly drawn) [Example 137, (S)—N-{4-[4-(Diethylcarbamoyl-phenyl-methyl)-piperazin-1-yl]-3-fluoro-phenyl}-2-methyl-butyramide]",0.07
11,"CCC(CC)C(=O)Nc1ccc(N2CCC(=C(C(=O)N(CC)CC)c3cccc(F)c3)CC2)c(F)c1 [Example 138, N-(4-{4-[Diethylcarbamoyl-(3-fluoro-phenyl)-methylene]-piperidin-1-yl}-3-fluoro-phenyl)-2-ethyl-butyramide]",0.07
12,"CCN(CC)C(=O)C(c1ccccc1)N1CCN(c2ccc(NC(=O)C(C)(C)c3ccc(Cl)cc3)cc2F)CC1 (stereo not shown) [Example 139, 2-(4-Chloro-phenyl)-N-{4-[4-(diethylcarbamoyl-phenyl-methyl)-piperazin-1-yl]-3-fluoro-phenyl}-isobutyramide]",0.072
13,"CCN(CC)C(=O)C(c1ccccc1)C1CCN(c2ccc(NC(=O)C(C)C)cc2F)CC1 (stereo not shown) [Example 140, N-{4-[4-(Diethylcarbamoyl-phenyl-methyl)-piperidin-1-yl]-3-fluoro-phenyl}-isobutyramide]",0.08
14,"CCN(CC)C(=O)C(c1ccccc1)C1CCN(c2ccc(NC(=O)c3cccnc3SC)cc2F)CC1 (stereo not shown) [Example 141, N-{4-[4-(Diethylcarbamoyl-phenyl-methyl)-piperidin-1-yl]-3-fluoro-phenyl}-2-methylsulfanyl-nicotinamide]",0.08
15,"CCNC(=O)C(c1ccccc1)C1CCN(c2c(F)cc(NC(=O)C(CC)CC)cc2F)CC1 (stereo not shown) [Example 142, 2-Ethyl-N-{4-[4-(ethylcarbamoyl-phenyl-methyl)-piperidin-1-yl]-3,5-difluoro-phenyl}-butyramide]",0.075
16,"CCN(CC)C(=O)C(c1ccccc1)N1CCN(c2ccc(NC(=O)C3CCCC3)cc2F)CC1 (stereo not shown) [Example 143, Cyclopentanecarboxylic acid {4-[4-(diethylcarbamoyl-phenyl-methyl)-piperazin-1-yl]-3-fluoro-phenyl}-amide]",0.08

row,Compound,IC50 [µM]
1,"CCN(CC)C(=O)C(c1ccccc1)C1CCN(c2ccc(NC(=O)c3ccsc3C)cc2F)CC1 (stereo not shown) [Example 144, 2-Methyl-thiophene-3-carboxylic acid {4-[4-(diethylcarbamoyl-phenyl-methyl)-piperidin-1-yl]-3-fluoro-phenyl}-amide]",0.1
2,"CCN(CC)C(=O)C(c1ccccc1)C1CCN(c2ccc(NC(=O)c3cccn3C)cc2F)CC1 (stereo not shown) [Example 145, 1-Methyl-1H-pyrrole-2-carboxylic acid {4-[4-(diethylcarbamoyl-phenyl-methyl)-piperidin-1-yl]-3-fluoro-phenyl}-amide]",0.1
3,"CCC(CC)C(=O)Nc1ccc(N2CCN(C(C(=O)OC)c3cc(F)cc(F)c3)CC2)c(F)c1 (stereo not shown) [Example 146, (3,5-Difluoro-phenyl)-{4-[4-(2-ethyl-butyrylamino)-2-fluoro-phenyl]-piperazin-1-yl}-acetic acid methyl ester]",0.115
4,"CCNC(=O)C(c1ccccc1)C1CCN(c2ccc(NC(=O)C3(C)CCCCC3)cc2C#N)CC1 (stereo not shown) [Example 147, 1-Methyl-cyclohexanecarboxylic acid {3-cyano-4-[4-(ethylcarbamoyl-phenyl-methyl)-piperidin-1-yl]-phenyl}-amide]",0.1
5,"CCNC(=O)C(c1ccccc1)C1CCN(c2ccc(NC(=O)[C@@H]3CCOC3)cc2C#N)CC1 (stereo partly drawn) [Example 148, (R)-Tetrahydro-furan-3-carboxylic acid {3-cyano-4-[4-(ethylcarbamoyl-phenyl-methyl)-piperidin-1-yl]-phenyl}-amide]",0.12
6,"CCN(CC)C(=O)C(c1ccccc1)C1CCN(c2ccc(NC(=O)c3ccccc3SC)cc2F)CC1 (stereo not shown) [Example 149, N-{4-[4-(Diethylcarbamoyl-phenyl-methyl)-piperidin-1-yl]-3-fluoro-phenyl}-2-methylsulfanyl-benzamide]",0.11
7,"O=C(Nc1ccc(N2CCN(C(C(=O)N3CCC(F)(F)C3)c3ccccc3)CC2)c(F)c1)[C@H]1CCOC1 (stereo partly drawn) [Example 151, (S)-Tetrahydro-furan-3-carboxylic acid (4-{4-[2-(3,3-difluoro-pyrrolidin-1-yl)-2-oxo-1-phenyl-ethyl]-piperazin-1-yl}-3-fluoro-phenyl)-amide]",0.14
8,"CCN(CC)C(=O)C(c1ccccc1)N1CCN(c2ccc(NC(=O)C3C(C)(C)C3(C)C)cc2F)CC1 (stereo not shown) [Example 152, 2,2,3,3-Tetramethyl-cyclopropanecarboxylic acid {4-[4-(diethylcarbamoyl-phenyl-methyl)-piperazin-1-yl]-3-fluoro-phenyl}-amide]",0.17
9,"CCC(CC)C(=O)Nc1ccc(N2CCN(C(C(=O)N(CC)CC)c3cc(F)ccc3Br)CC2)c(F)c1 (stereo not shown) [Example 153, N-(4-{4-[(2-Bromo-5-fluoro-phenyl)-diethylcarbamoyl-methyl]-piperazin-1-yl}-3-fluoro-phenyl)-2-ethyl-butyramide]",0.142
10,"CCN(CC)C(=O)C(c1ccccc1)C1CCN(c2ccc(NC(=O)Cc3cc(C)ccc3C)cc2F)CC1 (stereo not shown) [Example 154, 2-(1-{4-[2-(2,5-Dimethyl-phenyl)-acetylamino]-2-fluoro-phenyl}-piperidin-4-yl)-N,N-diethyl-2-phenyl-acetamide]",0.22
11,"CCC(CC)C(=O)Nc1ccc(N2CCN(C(C(=O)N(CC)CC)c3ccc(F)cc3)CC2)c(F)c1 (stereo not shown) [Example 155, N-(4-{4-[Diethylcarbamoyl-(4-fluoro-phenyl)-methyl]-piperazin-1-yl}-3-fluoro-phenyl)-2-ethyl-butyramide]",0.2
12,"CCN(CC)C(=O)C(c1ccccc1)C1CCN(c2ccc(NC(=O)Cc3c(F)cccc3F)cc2F)CC1 (stereo not shown) [Example 156, 2-(1-{4-[2-(2,6-Difluoro-phenyl)-acetylamino]-2-fluoro-phenyl}-piperidin-4-yl)-N,N-diethyl-2-phenyl-acetamide]",0.23
13,"CCN(CC)C(=O)C(c1ccccc1)C1CCN(c2ccc(NC(=O)c3cc(C)ccc3C)cc2F)CC1 (stereo not shown) [Example 157, N-{4-[4-(Diethylcarbamoyl-phenyl-methyl)-piperidin-1-yl]-3-fluoro-phenyl}-2,5-dimethyl-benzamide]",0.235
14,"CCC(CC)C(=O)Nc1ccc(N2CCN(C(C(=O)N3CCC(F)(F)CC3)c3ccc(F)cc3)CC2)c(F)c1 (stereo not shown) [Example 158, N-(4-{4-[2-(4,4-Difluoro-piperidin-1-yl)-1-(4-fluoro-phenyl)-2-oxo-ethyl]-piperazin-1-yl}-3-fluoro-phenyl)-2-ethyl-butyramide]",0.24
15,"CCNC(=O)C(c1cccc(F)c1)N1CCN(c2ccc(NC(=O)C(CC)CC)cc2F)CC1 (stereo not shown) [Example 159, 2-Ethyl-N-(4-{4-[ethylcarbamoyl-(3-fluoro-phenyl)-methyl]-piperazin-1-yl}-3-fluoro-phenyl)-butyramide]",0.25
